Ends that are not written are not given here. Peptide text beside a SMILES is read from it. * marks the point of attachment. Octanoyl = CCCCCCCC(=O)*
What was measured:
DBA white mice = experiment: Acute toxicity in mice; format: in vivo; conditions: for survival 24 to 72 hours post-injection: 1.4 ml total i.d./s.c./i.v./i.p.
Procedure: Acute toxicity was determined as follows:
DBA white mice (average weight 15 g.) were each injected with 1.4 ml. of a solution of the peptide in phosphate buffered saline, pH 7.4, as follows:
0.1 ml. × 3 intradermally
0.1 ml. × 3 subcutaneously
0.6 ml. intraperitoneally
The peptides and concentrations used were as follows: […]

[1] = tested on: Wil-2WT human lymphoblastoid tissue culture cell line; experiment: Blocking of binding of I125-tagged IgE to Wil-2WT cells in vitro
Procedure: In this regard, the 8 carbon chain acyl substituted peptide, octanoyl-Asp-Ser-Asp-Pro-Arg, as well as the […] acyl substituted peptide, acetoyl-Asp-Ser-Asp-Pro-Arg, were prepared by the method outlined in Example 10 above. These peptides were tested, in vitro, for their blocking ability with respect to the Wil-2WT human lymphoblastoid tissue culture cell line as follows.
Wil-2WT cells in culture medium were centrifuged at about 2000 RPM. The separated cells were mixed with minimal essential medium (MEM) and recentrifuged at 2000 RPM. The supernatent was decanted off completely and the residual cells were suspended in MEM+3% human serum albumin (HSA). The cell suspension was divided into suitable aliquots in reaction tubes. Blanks and control reaction tubes were also prepared. To various of the cell suspension tubes, were added known amount of Sha Myeloma E; Sha Myeloma E and octanoyl-Asp-Ser-Asp-Pro-Arg; or Sha Myeloma E and acetoyl-Asp-Ser-Asp-Pro-Arg. After mixing and standing at room temperature for approximately one hour, a known quantity of deaggregated IgE, tagged with radioactive iodine (I^125) was added to the tubes. After standing a short time, the capped tubes were mixed by slow inversion over an hour's time. […] The suspension was then counted on a gamma counter in order to determine the amount of tagged IgE bound to the Wil-2WT cells.

[2] = tested on: Prausnitz-Kustner (P-K) reaction; experiment: Prausnitz-Kustner (P-K) reaction blocking assay in human volunteers; format: in vivo; conditions: peptide approx. 6 μg/ml
Procedure: The "blocking" activity of the polypeptides of the invention can be assayed by utilization of the classic Prausnitz-Kustner (P-K) reaction. In this classic method, a known allergic serum i.e., one that contains IgE specific for a known antigen or allergen is injected intradermally into a human volunteer. After waiting a period of time, e.g. 20 or more hours, the injected sites are then challenged with a prick or injection of a solution of an antigen that is specific for the IgE in the injected serum. Within the next 10 to 30 minutes a positive reaction is evidenced by the development of a wheal (and flare) at the injected site. The more extensive the diameter of the wheal the more intensive is the allergic reaction. That is, a more extensive wheal indicates a greater release of histamine into the tissues at the injected site. Conversely, the development of wheals of lesser diameter or the absence of any wheal at all indicates diminished allergic reaction and/or no allergic reaction at all. The P-K reaction as noted above is a classic test and is universally known and utilized by allergists.
All of these assays were performed using a single proven safe P-K donor serum that contains IgE specific for guinea pig allergens.
Peptide solutions were either injected intradermally 1 to 24 hours prior to the P-K serum, or mixed with dilutions of the P-K serum for simultaneous injection. Initial tests were performed using the P-K serum at from 1:4 to 1:200 dilutions. Further studies were run at a fixed P-K dilution of 1:32 while the invention peptide solutions were varied to contain from about 1 mM to […] of the peptide being tested. Injected sites on the volunteers were challenged by prick-puncture of guinea pig BCA 1:40 w/v (purchased from Berkeley Biologicals, Inc.).
Human volunteers were chosen who had serum IgE levels below 100 U/ml. (242 ng/ml.) which levels have been previously shown to assure successful P-K reactivity. […] P-K and skin tests were performed on the back and/or forearm. […]

wheal and flare reaction = experiment: Displacement of IgE: direct skin challenge in an individual sensitive to guinea pig antigens; format: in vivo, human; conditions: single sensitive individual
Procedure: It has also been determined that the active polypeptides of the invention appear to have the ability to "displace" IgE from mast cells as well as to prevent the binding of the IgE to the receptors. In a single test, an individual known to have extreme sensitivity to guinea pig antigens, that is a person with a high natural concentration of guinea-pig-antigen-sensitive IgE, was injected with polypeptides in accordance with the invention, and […] reaction to guinea pig antigen was noted.
Specifically, approximately 2 nM each of Asp-Ser-Asp-Pro-Arg and Ala-Asp-Ser-Asp-Pro-Arg were each intradermally injected into 3 marked sites. For comparison, TASME, as well as a control of the buffer diluent alone, was also each injected into 3 marked sites. At one, five and twenty-four hours subsequent to the polypeptide and control injection, one of each peptide and one diluent site were prick-puncture challenged with guinea pig antigen. […] However, at the twenty-four hour challenge, the wheal at the Asp-Ser-Asp-Pro-Arg site was approximately 45% smaller; while at the Ala-Asp-Ser-Asp-Pro-Arg site, the wheal was approximately 23% smaller.

In the case of `N=C(N)NCCC[C@H](NC(=O)[C@@H]1CCCN1C(=O)[C@H](CC(=O)O)NC(=O)[C@H](CO)NC(=O)[C@@H](N)CC(=O)O)C(=O)O` [Asp-Ser-Asp-Pro-Arg] (H-DSDPR-OH), the “survival 24 to 72 hours post-injection” value (DBA white mice; 10 μg/ml (1 mg/kg), 8 mice) is reported as “all still living”, the “post-mortem gross and microscopic examination of tissues and organs” value (DBA white mice; 10 μg/ml (1 mg/kg), 8 mice) is reported as “no local or systemic toxico-logical abnormalities” and the “survival 24 to 72 hours post-injection” value (DBA white mice; 13 μg/ml (1.3 mg/kg), 8 mice) is reported as “all still living”. The “post-mortem gross and microscopic examination of tissues and organs” value (DBA white mice; 13 μg/ml (1.3 mg/kg), 8 mice) was “no local or systemic toxico-logical abnormalities”.
With acetoyl-Asp-Ser-Asp-Pro-Arg (Ac-DSDPR) the “blocking ability on Wil-2WT cells (in words)” value [1] was “did not exhibit any blocking ability whatsoever”.
In the case of `C[C@H](N)C(=O)N[C@@H](CC(=O)O)C(=O)N[C@@H](CO)C(=O)N[C@@H](CC(=O)O)C(=O)N1CCC[C@H]1C(=O)N[C@@H](CCCNC(=N)N)C(=O)O` [Ala-Asp-Ser-Asp-Pro-Arg] (H-ADSDPR-OH), the “survival 24 to 72 hours post-injection” value (DBA white mice; 5 μg/ml (375 mg/kg), 6 mice) is reported as “all still living” and the “post-mortem gross and microscopic examination of tissues and organs” value (DBA white mice; 5 μg/ml (375 mg/kg), 6 mice) is reported as “no local or systemic toxico-logical abnormalities”.
In the case of “tosyl-L-arginine sarcosine methylester [TASME]”, the “inhibition, individual high” value ([2]; highest of six individuals, 0.1 ml per site) is reported as 40%, the “inhibition, individual low” value ([2]; lowest of six individuals, 0.1 ml per site) is reported as 0% and the “average % inhibition (P-K wheal)” value ([2]; six individuals, 0.1 ml intradermally, 0.05 ml diluted P-K serum containing 0.2 ng IgE, versus control wheal) is reported as 24%. For the same compound, the “inhibition of the wheal and flare reaction” value (wheal and flare reaction; challenge at one and five hours after intradermal injection of approx. 2 nM) was “No inhibition” and the “wheal smaller than at buffered saline diluent site” value (wheal and flare reaction; challenge at twenty-four hours after intradermal injection of approx. 2 nM) was “No reduction”.
`CCCCCCCC(=O)N[C@@H](CC(=O)O)C(=O)N[C@@H](CO)C(=O)N[C@@H](CC(=O)O)C(=O)N1CCC[C@H]1C(=O)N[C@@H](CCCNC(=N)N)C(=O)O` [octanoyl-Asp-Ser-Asp-Pro-Arg] (Octanoyl-DSDPR-OH) was tested, and the “blocking of the binding of IgE to Wil-2WT cells, highest seen” value ([1]; as high as, in several procedures) was ≤ 25%.
